{
  "source": "paper PMC10017042",
  "about": "(Science Advances, 2023)",
  "key": {"BAF complex": {"test_system": "BAF complex", "assay": "BAF complex target gene expression (IL-10, SOCS3, CBX7; control B-ACT) by RT-qPCR in participants", "assay_type": "in vivo, human", "settings": "day 0, 6 hours after first dose relative to pretreatment", "description": "We reasoned that the effect on the expression of these gene targets at later time points (days 14 and 42) would be less useful as specific biomarker of BAF complex inhibition due to treatment interruptions and potential induction via other pathways. […] These findings are consistent with, and might be the consequence of, the generally lower plasma pyrimethamine Ctrough in participants that received the combined intervention regimen compared to those that received solely pyrimethamine.\nRT-qPCR reactions were conducted using GoTaq qPCR Master Mix (Promega) following the manufacturer’s protocol. The following thermal cycling protocol was used for amplification: 3 min at 95°C, followed by 40 cycles of 95°C for 10 s and 60°C for 30 s. Expression data were calculated using the 2^−∆∆Ct methodology ([73]). Cyclophilin A was used as a housekeeping gene for the analysis. The list of primers is available in table S9."}, "[1]": {"design": "method as in PMID 22837004", "settings": "assumed for the sampling design; fasted first dose; cited from earlier work"}, "[2]": {"assay": "Plasma drug concentrations (pyrimethamine UPLC-MS/MS, VPA assay, unbound dolutegravir) in trial participants", "assay_type": "in vivo, human", "settings": "for PLWH with VPA plasma levels exceeding the therapeutic window (up to 100 mg/liter): day 7; for concentration at 6 h / concentration at 14 day: human, plasma, oral; for concentration at 6 h: read-out: Median plasma total VPA concentration; for concentration at 14 day: day 14, read-out: Median VPA Ctrough", "procedure": "Self-reported adherence was assessed at each study visit, and empty pill strips were collected after the 2-week intervention phase. […] A gradient (0.3 ml/min) with two eluents was used (A: 2 mM ammonium acetate + 0.1% formic acid in water; B: 2 mM ammonium acetate + 0.1% formic acid in methanol). […] For measurement validation, we performed linearity, correctness, LOD and lower LOQ, repeatability, reproducibility, measurement uncertainty, robustness, and carryover. […] Unbound dolutegravir plasma concentrations were quantified with a validated UPLC-MS/MS bioquantification method as previously described ([61])."}, "HIV-1": {"test_system": "HIV-1", "procedure": "Because of low cell numbers in the baseline sample, LUNA-06 (combination arm, participant stopped at day 7) was excluded from this primary end point analysis.\nFor quantification of CA US HIV-1 RNA, CD4^+ T cells were isolated from peripheral blood mononuclear cells (PBMCs) by negative selection using EasySep Human CD4^+ T Cell Enrichment Cocktail ([…] Technologies). Isolation of CD4^+ T cells was performed on ice or at 4°C (unless indicated otherwise by the manufacturer). Approximately 1.5 × 10^6 CD4^+ T cells were lysed in triplicate with TRI reagent. Total RNA was isolated by the phenol/chloroform isolation method following the manufacturer’s instructions. A minimum of 150 ng of total RNA was deoxyribonuclease (DNase)–treated following the manufacturer’s instructions (DNase I, Amplification Grade, Invitrogen), and complementary DNA (cDNA) synthesis was performed in duplicate with SuperScript II (Invitrogen) following the manufacturer‘s instructions. Absolute quantification of CA US HIV-1 RNA was performed following a modified version of Pasternak et al. methodology ([72]). Briefly, the first round of nested amplification was performed in a final volume of 25 μl using 10 μl of cDNA, 2.5 μl of 10× PCR buffer (Life Technologies), 1 μl of 50 mM MgCl2 (Life Technologies), 1 μl of 10 mM deoxynucleotide triphosphate (dNTP) (Life Technologies), 0.075 μl of 100 μM US forward primer, 0.075 μl of 100 μM US reverse 1 primer, and 0.2 μl of Platinum Taq polymerase (Life Technologies) at 95°C for 5 min, followed by 15 cycles at 95°C for 30 s, 55°C for 30 s, and 72°C for […]. The second round of amplification was performed in a final volume of 25 μl using 2 μl of preamplified cDNA, 2.5 μl of […] PCR buffer (Life Technologies), 1 μl of 50 mM MgCl2 (Life Technologies), 1 μl of 10 mM dNTPs (Life Technologies), 0.05 μl of 100 μM US forward primer, 0.05 μl of 100 μM US reverse 2 primer, 0.0375 μl of US probe, and 0.2 μl of Platinum Taq polymerase (Life Technologies) at 95°C for 5 min, followed by 45 cycles at 95°C for 30 s and 60°C for 1 min. The list of primers and probe is available in table S9. The absolute number of US copies in the PCR was calculated using a standard curve ranging from 2 to 512 copies of a plasmid containing the full-length HIV-1 genome (pNL4.3.Luc.R-E-). […] The quantity of CA US HIV-1 RNA was expressed as the number of copies per 150 ng of input RNA in reverse transcription.\nThe measurements related to the end points CA US HIV-1 RNA, MS HIV-1 RNA, plasma HIV-1 RNA, and drug plasma levels were described as median with IQR or full range. […] The fold change difference per study arm from pretreatment CA US HIV-1 RNA levels to the time points 6 hours, day 14, and day 42 after first dosing was calculated by adding up the fold change per individual divided by the total number of measurements available per time point. We analyzed the primary end point by a generalized estimating equation model to evaluate whether any difference in the CA US HIV-1 RNA existed at any time point during the trial in any of the three interventional arms compared to the control arm. An interaction term of time and treatment was included. […] The difference between the observed and expected amount of CA US HIV-1 RNA was calculated, and combination therapy was considered synergistic if the difference and its 95% confidence interval were >0. Because of the number of participants in this pilot, all secondary end points were exploratory."}, "[3]": {"settings": "individual participants, one value each, below LOQ imputed as 16, listed as VPA"}},
  "note": "“And” between values parts separate entries of the source, which are not always exact repeats. Equal entries are not always repeated. Where two headings read alike, the source gives them in different places.",
  "data": [
    {"smiles": "CCCC(CCC)C(=O)O", "note": "[valproic acid]", "values": [
      {"measurement": "mRNA levels of BAF target genes (IL-10, SOCS3, CBX7)", "setting": "BAF complex", "result": "no increase"},
      {"measurement": "Tmax", "setting": "[1]", "result": "approximately 4 hours"},
      {"measurement": "PLWH with VPA plasma levels exceeding the therapeutic window (up to 100 mg/liter)", "setting": "[2]; those who continued VPA", "result": "three of nine"},
      {"measurement": "PLWH with VPA plasma levels exceeding the therapeutic window (up to 100 mg/liter)", "setting": "[2]; those whose therapy was adjusted for toxicity while receiving VPA", "result": "three of the five"},
      {"measurement": "Drug detectable in plasma", "setting": "[2]; day 42 (28 days after end of treatment)", "result": "No pyrimethamine or VPA was detectable"},
      {"measurement": "concentration at 6 h", "setting": "[2]; 30 mg/kg per day (divided into two equal doses), VPA monotherapy", "result": 47300, "unit": "ng/mL"},
      {"measurement": "concentration at 14 day", "setting": "[2]; 30 mg/kg per day, VPA monotherapy, six PLWH with uninterrupted exposure", "result": 84.8, "unit": "µg/mL"},
      {"measurement": "concentration at 6 h", "setting": "[2]; combination treatment with pyrimethamine", "result": 47400, "unit": "ng/mL"},
      {"measurement": "concentration at 14 day", "setting": "[2]; combination treatment, four PLWH with uninterrupted exposure", "result": 113, "unit": "µg/mL"},
      {"measurement": "Median CA US HIV-1 RNA compared to pretreatment levels", "setting": "HIV-1; any time point", "result": "did not have significantly increased"},
      {"measurement": "CA US HIVRNA copies/150 ng Total RNA Day 0, 6 hours", "setting": "HIV-1; [3]", "result": "42,74 copies/150 ng Total RNA and 53,04 copies/150 ng Total RNA and 19,23 copies/150 ng Total RNA and 101,51 copies/150 ng Total RNA and 51,59 copies/150 ng Total RNA and 10,16 copies/150 ng Total RNA and 16,00 copies/150 ng Total RNA"},
      {"measurement": "CA US HIVRNA copies/150 ng Total RNA Day 14", "setting": "HIV-1; [3]", "result": "28,40 copies/150 ng Total RNA and 97,80 copies/150 ng Total RNA and 16,00 copies/150 ng Total RNA and 47,89 copies/150 ng Total RNA and 161,79 copies/150 ng Total RNA and 18,41 copies/150 ng Total RNA and 18,82 copies/150 ng Total RNA"},
      {"measurement": "CA US HIVRNA copies/150 ng Total RNA Day 42", "setting": "HIV-1; [3]", "result": "49,74 copies/150 ng Total RNA and 59,03 copies/150 ng Total RNA and 16,00 copies/150 ng Total RNA and 52,98 copies/150 ng Total RNA and 59,33 copies/150 ng Total RNA and 22,83 copies/150 ng Total RNA"},
      {"measurement": "CA US HIVRNA copies/150 ng Total RNA Day 0, pretreatment", "setting": "HIV-1; individual participants, one value each, pretreatment baseline, below LOQ imputed as 16, listed as VPA", "result": "95,16 copies/150 ng Total RNA and 39,10 copies/150 ng Total RNA and 16,00 copies/150 ng Total RNA and 76,70 copies/150 ng Total RNA and 12,93 copies/150 ng Total RNA and 22,90 copies/150 ng Total RNA"}
    ]}
  ]
}
